How the values were obtained:
Assay in all cases: viability inhibition at highest dose (% inhibition); higher = more growth inhibition
BT-474 = details: 72 h
Method: (§1)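 Percent inhibition of viability (CellTiter-Glo, 72 h) at the highest tested concentration (D5), normalised to DMSO (0%) and 100 µM benzethonium chloride (100%). Resistant lines and the 'in 1µM tamoxifen' arms were tested in 1 µM 4-OH-tamoxifen.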

BT-474 Tam2 = details: 4-OH-tamoxifen in medium 1 µM; 72 h
Method: as §1

T-47D = details: 72 h
Method: as §1

ZR-75-1 Tam2 = details: 4-OH-tamoxifen in medium 1 µM; 72 h
Method: as §1

ZR-75-1 Tam1 = details: 4-OH-tamoxifen in medium 1 µM; 72 h
Method: as §1

MCF-7 Tam1 = details: 4-OH-tamoxifen in medium 1 µM; 72 h
Method: as §1

ZR-75-1 = details: 72 h
Method: as §1

MCF-7 = details: 72 h
Method: as §1

BT-474 Tam1 = details: 4-OH-tamoxifen in medium 1 µM; 72 h
Method: as §1

T-47D Tam1 = details: 4-OH-tamoxifen in medium 1 µM; 72 h
Method: as §1

T-47D Tam2 = details: 4-OH-tamoxifen in medium 1 µM; 72 h
Method: as §1

| SMILES | viability inhibition at highest dose (BT-474; 4-OH-tamoxifen in medium 0 µM) | viability inhibition at highest dose (BT-474; 4-OH-tamoxifen in medium 1 µM) | viability inhibition at highest dose (BT-474 Tam2) | viability inhibition at highest dose (T-47D; 4-OH-tamoxifen in medium 0 µM) | viability inhibition at highest dose (T-47D; 4-OH-tamoxifen in medium 1 µM) | viability inhibition at highest dose (ZR-75-1 Tam2) | viability inhibition at highest dose (ZR-75-1 Tam1) | viability inhibition at highest dose (MCF-7 Tam1) | viability inhibition at highest dose (ZR-75-1; 4-OH-tamoxifen in medium 0 µM) | viability inhibition at highest dose (ZR-75-1; 4-OH-tamoxifen in medium 1 µM) | viability inhibition at highest dose (MCF-7; 4-OH-tamoxifen in medium 0 µM) | viability inhibition at highest dose (MCF-7; 4-OH-tamoxifen in medium 1 µM) | viability inhibition at highest dose (BT-474 Tam1) | viability inhibition at highest dose (T-47D Tam1) | viability inhibition at highest dose (T-47D Tam2) |
| --- | --- | --- | --- | --- | --- | --- | --- | --- | --- | --- | --- | --- | --- | --- | --- |
| CO[C@H]1C[C@@H]2CC[C@@H](C)[C@@](O)(O2)C(=O)C(=O)N2CCCC[C@H]2C(=O)O[C@H]([C@H](C)C[C@@H]2CC[C@@H](O)[C@H](OC)C2)CC(=O)[C@H](C)/C=C(\C)[C@@H](O)[C@@H](OC)C(=O)[C@H](C)C[C@H](C)/C=C/C=C/C=C/1C [Sirolimus (Rapamycin)] (drug 1000 nM) | 17.8 | 13.2 | 24.1 | 28.5 | 13.8 | 36.3 | 33.3 | 7.86 | 38.1 | 31 | 45.5 | 35.8 | 21.7 | 34.8 | 26.9 |
| CO[C@H]1C[C@@H]2CC[C@@H](C)[C@@](O)(O2)C(=O)C(=O)N2CCCC[C@H]2C(=O)O[C@H]([C@H](C)C[C@@H]2CC[C@@H](OP(C)(C)=O)[C@H](OC)C2)CC(=O)[C@H](C)/C=C(\C)[C@@H](O)[C@@H](OC)C(=O)[C@H](C)C[C@H](C)/C=C/C=C/C=C/1C [Ridaforolimus] (drug 100 nM) | 19.8 | 6.43 | 22 | 33.4 | 21.6 | 39.5 | 35.9 | 17.7 | 37.8 | 30.1 | 49.7 | 37.1 | 23.2 | 33.3 | 28.2 |
| C[C@@H]1CCN(C(=O)CC#N)C[C@@H]1N(C)c1ncnc2[nH]ccc12 [Tofacitinib (Tasocitinib)] (drug 5000 nM) | 0.0745 | -12.8 | -10.5 | 3.16 | -4.5 | 10.5 | 4.16 | 1.13 | -2.74 | -1.91 | -15.3 | 12.9 | -11.1 | -1.37 | -13.3 |
| Nc1ccn([C@@H]2O[C@H](CO)[C@@H](O)[C@@H]2O)c(=O)n1 [Cytarabine] (drug 10000 nM) | -5.7 | 11 | 1.43 | 36.9 | 6.47 | 27.4 | 28.3 | 6.46 | 39.3 | 13 | 29.1 | 12 | 22.1 | 30.6 | -16.3 |
| Cc1cc(C(C)Nc2ccccc2)c2nc(N3CCOCC3)cc(=O)n2c1 (stereo not given) [TGX-221] (drug 10000 nM) | 9.95 | 25.3 | 42.5 | 8.41 | 24.1 | 51.8 | 49 | 9.33 | 52 | 45.3 | 21.3 | 25.4 | 29 | 12.4 | 15.9 |
| c1ccc2c(CCNc3ccc(Nc4ccncc4)cc3)c[nH]c2c1 (drug 10000 nM) | -5.93 | 78 | 37.9 | 16.5 | 9.19 | 32.2 | 21.8 | 12.8 | 14 | 25.5 | 62.4 | 22.2 | 91.8 | 20.6 | 22.6 |
| O=c1[nH]cc(F)c(=O)[nH]1 [Fluorouracil] (drug 10000 nM) | -7.65 | -2.76 | 0.595 | 13.4 | 10.1 | 17.1 | 8.57 | 8.84 | 16.4 | 15.2 | 35.1 | 4.26 | 1.71 | 5.54 | 9.76 |
| CC(=O)Nc1cccc(-n2c(=O)n(C3CC3)c(=O)c3c(Nc4ccc(I)cc4F)n(C)c(=O)c(C)c32)c1 (drug 250 nM) | -8.37 | 18.2 | -15.8 | -2.33 | 10.4 | 1.99 | 2.29 | 10.6 | -3.05 | 5.16 | 2.23 | 17.3 | 8.35 | 12.5 | 26.5 |
| C1CN1c1nc(N2CC2)nc(N2CC2)n1 [Triethylenemelamine] (drug 10000 nM) | -11.5 | -8.95 | -2.97 | -11.6 | -10.3 | -10 | -3.65 | -10.7 | -18.1 | -2.81 | 1.71 | -13.7 | 7.12 | 19.6 | 13 |
| CC/C(=C(\c1ccc(O)cc1)c1ccc(OCCN(C)C)cc1)c1ccccc1 [4-hydroxytamoxifen] (drug 10000 nM) | 23.3 | 97.2 | 96 | 20.4 | 59 | 21.5 | 17.8 | 46.3 | 8.03 | 33.1 | 52.3 | 83.1 | 97.8 | 38.4 | 79.7 |
| CN1CCC(COc2cnc(-c3cccc(Cn4nc(-c5cccc(C#N)c5)ccc4=O)c3)nc2)CC1 (drug 1000 nM) | 2.72 | -6.04 | 8.15 | -10.4 | -5.78 | -3.94 | 0.277 | 7.93 | -2.72 | 2.17 | -4.34 | 13.2 | 4.43 | 57.5 | -1.11 |
| CC(C)C[C@H](NC(=O)[C@H](CCc1ccccc1)NC(=O)CN1CCOCC1)C(=O)N[C@@H](Cc1ccccc1)C(=O)N[C@@H](CC(C)C)C(=O)[C@@]1(C)CO1 [Carfilzomib] (drug 1000 nM) | 79.9 | 96.2 | 93.7 | 86.2 | 91.1 | 75.9 | 80.2 | 92.7 | 76.9 | 85.7 | 91.8 | 96.5 | 97.8 | 96.3 | 96.8 |
| CN[C@@H]1C[C@H]2O[C@@](C)([C@@H]1OC)n1c3ccccc3c3c4c(c5c6ccccc6n2c5c31)C(=O)N[C@H]4O [UCN-01] (drug 10000 nM) | 74.7 | 90.7 | 96.9 | 67.6 | 69.8 | 73.2 | 66.1 | 96 | 61.4 | 61.5 | 90.3 | 97.1 | 96 | 78 | 70.5 |

Reference: the supplement of paper PMC4932681
